Measurements reported in patent US8134015B2, “Compound inhibiting in vivo phosphorous transport and medicine containing the same” (Kyowa Hakko Kirin Co., Ltd., priority 2003, dated 2012).

target: T1, rat NaPi-2b (Rattus norvegicus, UniProt Q9JJ09); experiment: Sodium-dependent phosphate uptake of Xenopus oocytes which expressed NaPi-2b (32P); type: cell-based; conditions: Xenopus oocytes expressing rat NaPi-2b, 32P radioactive phosphorus; read-out: IC50 (phosphate uptake inhibitory activity)
T1 construct: expressed in transfected cells; host or cells: Xenopus oocytes injected with cRNA
T1 sequence (Q9JJ09 1-695): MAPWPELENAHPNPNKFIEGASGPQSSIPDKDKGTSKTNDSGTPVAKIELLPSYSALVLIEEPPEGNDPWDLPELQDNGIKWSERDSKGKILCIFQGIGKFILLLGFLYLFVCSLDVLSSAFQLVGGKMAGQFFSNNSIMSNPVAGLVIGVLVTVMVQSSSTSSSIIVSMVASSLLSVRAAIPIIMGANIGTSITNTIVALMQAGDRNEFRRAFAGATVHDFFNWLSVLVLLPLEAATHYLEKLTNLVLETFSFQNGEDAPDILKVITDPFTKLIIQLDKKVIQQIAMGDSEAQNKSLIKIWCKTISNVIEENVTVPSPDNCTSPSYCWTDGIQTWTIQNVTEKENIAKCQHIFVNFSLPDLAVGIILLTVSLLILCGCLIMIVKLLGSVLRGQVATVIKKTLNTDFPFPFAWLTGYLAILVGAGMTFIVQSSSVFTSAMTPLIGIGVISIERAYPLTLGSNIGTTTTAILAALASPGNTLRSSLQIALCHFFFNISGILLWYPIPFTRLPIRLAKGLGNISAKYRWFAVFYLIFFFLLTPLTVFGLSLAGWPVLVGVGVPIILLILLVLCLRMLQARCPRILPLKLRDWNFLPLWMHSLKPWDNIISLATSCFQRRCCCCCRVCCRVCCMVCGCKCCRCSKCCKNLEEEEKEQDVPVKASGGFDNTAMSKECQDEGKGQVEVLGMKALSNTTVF
Procedure: Pharmacological Test Example 1
Experiment of Sodium-Dependent Phosphate Uptake of Xenopus oocytes which Expressed NaPi-2b
Degenerate primers were prepared from sequences of mouse NaPi-2b disclosed in Hilfiker H. et al., Pro Natl Acad Sci USA, 95 (24): 14564-14569, […] and sequences of human and rat NaPi-2a disclosed in Magagnin S. et al., Proc Natl Aca Sci USA, 90 (13): 5979-5983, 1993. RNA was extracted from the rat small intestine using ISOGEN; manufactured by NIPPON GENE CO., LTD (Japan). 400 bp gene fragments were obtained by PCR using, as a template, a cDNA library prepared with a cDNA synthesis kit (manufactured by STRATAGENE (US)). Thereafter, the above rat small intestine cDNA library was screened using the gene fragment as a probe, and the whole gene sequence of rat NaPi-2b was cloned. cRNA was synthesized from the cloned rat NaPi-2b cDNA with a cRNA synthesis kit (manufactured by Ambion (US)). The synthesized cRNA was injected into Xenopus oocytes (obtained from COPACETIC (Japan)) with a liquid microinjector (manufactured by Drummond (US)) and was cultured for 2 days to express rat NaPi-2b. Thereafter, for a group of derivatives, phosphate uptake inhibitory activity were measured using the Xenopus oocytes with ^32P radioactive phosphorus (manufactured by Daiichi Kagaku Inc. (Japan)). […] The inhibitory activity for 300 μM and 100 μM was determined from the same inhibition curve and expressed in percentage inhibition (%) in Table 5.

Question: `COc1ccc(C(=O)Nc2ccccc2C(=O)N/N=C/c2cccc(Cl)c2)cc1OC` [Compound 35, N-[2-(3-Chloro-benzylidene-hydrazinocarbonyl)-phenyl]-3,4-dimethoxy-benzamide] was tested. Which IC50 did it give?
Answer: The IC50 was 3.23 µM.

Question: Which IC50 does the source give for `COc1ccc(C(=O)Nc2ccccc2C(=O)N/N=C/c2cc(C)c(O)c(C)c2)cc1OC` [Compound 36, N-[2-(4-Hydroxy-3,5-dimethyl-benzylidene-hydrazinocarbonyl)-phenyl]-3,4-dimethoxy-benzamide] here?
Answer: The IC50 was 4.04 µM.

Question: For `CCOc1cc(/C=N/NC(=O)c2ccccc2NC(=O)c2ccc(OC)c(OC)c2)ccc1O` [Compound 37, N-[2-(3-Ethoxy-4-hydroxy-benzylidene-hydrazinocarbonyl)-phenyl]-3,4-dimethoxy-benzamide], which IC50 is on record?
Answer: The IC50 was 13.5 µM.

Question: How did the IC50 turn out when `O=C(Nc1ccccc1C(=O)N/N=C/c1ccc(F)cc1)c1ccccc1F` [Compound 38, 2-Fluoro-N-[2-(4-fluoro-benzylidene-hydrazinocarbonyl)-phenyl]-benzamide] was run?
Answer: Its IC50 is 5.64 µM.

Question: For `O=C(Nc1ccccc1C(=O)N/N=C/c1cccc(O)c1)c1ccccc1F` [Compound 39, 2-Fluoro-N-[2-(3-hydroxy-benzylidene-hydrazinocarbonyl)-phenyl]-benzamide], which IC50 is on record?
Answer: Its IC50 is 9.24 µM.

Question: `Cc1ccc(/C=N/NC(=O)c2ccccc2NC(=O)c2ccccc2F)cc1` [Compound 40, 2-Fluoro-N-[2-(4-methyl-benzylidene-hydrazinocarbonyl)-phenyl]-benzamide] was tested. Which IC50 did it give?
Answer: The IC50 was 2.03 µM.

Question: For `COc1ccc(C(=O)Nc2ccccc2C(=O)N/N=C/c2ccc(Cl)c(C(F)(F)F)c2)cc1OC` [Compound 41, N-[2-(4-Chloro-3-trifluoromethyl-benzylidene-hydrazinocarbonyl)-phenyl]-3,4-dimethoxy-benzamide], which IC50 is on record?
Answer: The IC50 was 2.43 µM.

Question: Which IC50 does the source give for `COc1ccc(C(=O)Nc2ccccc2C(=O)N/N=C/c2ccc(O)c(C)c2)cc1OC` [Compound 42, N-[2-(4-Hydroxy-3-methyl-benzylidene-hydrazinocarbonyl)-phenyl]-3,4-dimethoxy-benzamide] here?
Answer: The IC50 was 8.21 µM.

Question: With `COc1ccc(C(=O)Nc2ccccc2C(=O)N/N=C/c2cc(C)ccc2C)cc1OC` [Compound 43, N-[2-(2,5-Dimethyl-benzylidene-hydrazinocarbonyl)-phenyl]-3,4-dimethoxy-benzamide] as the compound, how does the IC50 read?
Answer: Its IC50 is 20.7 µM.

Question: Which IC50 does the source give for `COc1ccc(C(=O)Nc2ccccc2C(=O)N/N=C/c2cc(C(F)(F)F)ccc2F)cc1OC` [Compound 44, N-[2-(2-Fluoro-5-trifluoromethyl-benzylidene-hydrazinocarbonyl)-phenyl]-3,4-dimethoxy-benzamide] here?
Answer: Its IC50 is 4.71 µM.

Question: With `Cc1cc(/C=N/NC(=O)c2ccccc2NC(=O)c2ccccc2F)ccc1O` [Compound 45, 2-Fluoro-N-[2-(4-hydroxy-3-methyl-benzylidene-hydrazinocarbonyl)-phenyl]-benzamide] as the compound, how does the IC50 read?
Answer: The IC50 was 26.1 µM.

Question: `Cc1ccc(C)c(/C=N/NC(=O)c2ccccc2NC(=O)c2ccccc2F)c1` [Compound 46, N-[2-(2,5-Dimethyl-benzylidene-hydrazinocarbonyl)-phenyl]-2-fluoro-benzamide] was tested. Which IC50 did it give?
Answer: Its IC50 is 7.41 µM.

Question: How did the IC50 turn out when `COc1ccc(C(=O)Nc2ccccc2C(=O)N/N=C/c2cccc(F)c2)cc1` [Compound 47, N-[2-(3-Fluoro-benzylidene-hydrazinocarbonyl)-phenyl]-4-methoxy-benzamide] was run?
Answer: The IC50 was 4.38 µM.

Question: Which IC50 does the source give for `COc1ccc(C(=O)Nc2ccccc2C(=O)N/N=C/c2ccc(F)cc2)cc1` [Compound 48, N-[2-(4-Fluoro-benzylidene-hydrazinocarbonyl)-phenyl]-4-methoxy-benzamide] here?
Answer: The IC50 was 2.07 µM.

Question: Which IC50 does the source give for `COc1ccc(C(=O)Nc2ccccc2C(=O)N/N=C/c2cccc(C)c2)cc1` [Compound 49, 4-Methoxy-N-[2-(3-methyl-benzylidene-hydrazinocarbonyl)-phenyl]-benzamide] here?
Answer: Its IC50 is 3.37 µM.

Question: For `COc1ccc(C(=O)Nc2ccccc2C(=O)N/N=C/c2cccc(O)c2)cc1` [Compound 50, N-[2-(3-Hydroxy-benzylidene-hydrazinocarbonyl)-phenyl]-4-methoxy-benzamide], which IC50 is on record?
Answer: The IC50 was 19.5 µM.

Question: How did the IC50 turn out when `COc1ccc(C(=O)Nc2ccccc2C(=O)N/N=C/c2ccc(C)cc2)cc1` [Compound 51, 4-Methoxy-N-[2-(4-methyl-benzylidene-hydrazinocarbonyl)-phenyl]-benzamide] was run?
Answer: The IC50 was 4.6 µM.

Question: How did the IC50 turn out when `C=CCOc1ccc(/C=N/NC(=O)c2ccccc2NC(=O)c2ccc(OC)c(OC)c2)cc1` [Compound 52, N-[2-(4-Allyloxy-benzylidene-hydrazinocarbonyl)-phenyl]-3,4-dimethoxy-benzamide] was run?
Answer: Its IC50 is 10.4 µM.

Question: How did the IC50 turn out when `COc1cc(/C=N/NC(=O)c2ccccc2NC(=O)c2ccc(OC)c(OC)c2)cc(OC)c1` [Compound 53, N-[2-(3,5-Dimethoxy-benzylidene-hydrazinocarbonyl)-phenyl]-3,4-dimethoxy-benzamide] was run?
Answer: The IC50 was 4.05 µM.

Question: `COc1ccc(C(=O)Nc2ccccc2C(=O)N/N=C/c2cccc(Oc3cccc(C(F)(F)F)c3)c2)cc1OC` [Compound 54, 3,4-Dimethoxy-N-{2-[3-(3-trifluoromethyl-phenoxy)-benzylidene-hydrazinocarbonyl]-phenyl}-benzamide] was tested. Which IC50 did it give?
Answer: The IC50 was 6.45 µM.

Question: With `COc1cc(OC)cc(C(=O)Nc2ccccc2C(=O)N/N=C/c2cccc(F)c2)c1` [Compound 55, N-[2-(3-Fluoro-benzylidene-hydrazinocarbonyl)-phenyl]-3,5-dimethoxy-benzamide] as the compound, how does the IC50 read?
Answer: Its IC50 is 0.86 µM.

Question: Which IC50 does the source give for `COc1cc(OC)cc(C(=O)Nc2ccccc2C(=O)N/N=C/c2ccc(F)cc2)c1` [Compound 56, N-[2-(4-Fluoro-benzylidene-hydrazinocarbonyl)-phenyl]-3,5-dimethoxy-benzamide] here?
Answer: The IC50 was 0.89 µM.

Question: Which IC50 does the source give for `COc1cc(OC)cc(C(=O)Nc2ccccc2C(=O)N/N=C/c2ccc(C)cc2)c1` [Compound 57, 3,5-Dimethoxy-N-[2-(4-methyl-benzylidene-hydrazinocarbonyl)-phenyl]-benzamide] here?
Answer: The IC50 was 1.02 µM.

Question: `COc1cc(OC)cc(C(=O)Nc2ccccc2C(=O)N/N=C/c2cccc(O)c2)c1` [Compound 58, N-[2-(3-Hydroxy-benzylidene-hydrazinocarbonyl)-phenyl]-3,5-dimethoxy-benzamide] was tested. Which IC50 did it give?
Answer: The IC50 was 7.67 µM.

Question: `COc1ccc(C(=O)Nc2ccc(Br)cc2C(=O)N/N=C/c2cccc(Cl)c2)cc1OC` [Compound 59, N-[4-Bromo-2-(3-chloro-benzylidene-hydrazinocarbonyl)-phenyl]-3,4-dimethoxy-benzamide] was tested. Which IC50 did it give?
Answer: The IC50 was 1.22 µM.

Question: Which IC50 does the source give for `COc1ccc(C(=O)Nc2ccc(Br)cc2C(=O)N/N=C/c2ccc(Cl)cc2)cc1OC` [Compound 60, N-[4-Bromo-2-(4-chloro-benzylidene-hydrazinocarbonyl)-phenyl]-3,4-dimethoxy-benzamide] here?
Answer: Its IC50 is 1.58 µM.

Question: How did the IC50 turn out when `COc1ccc(C(=O)Nc2ccc(Br)cc2C(=O)N/N=C/c2ccc(F)cc2)cc1OC` [Compound 61, N-[4-Bromo-2-(4-fluoro-benzylidene-hydrazinocarbonyl)-phenyl]-3,4-dimethoxy-benzamide] was run?
Answer: Its IC50 is 0.31 µM.

Question: For `COc1ccc(C(=O)Nc2ccc(Br)cc2C(=O)N/N=C/c2ccc(C)cc2)cc1OC` [Compound 62, N-[4-Bromo-2-(4-methyl-benzylidene-hydrazinocarbonyl)-phenyl]-3,4-dimethoxy-benzamide], which IC50 is on record?
Answer: Its IC50 is 0.9 µM.

Question: How did the IC50 turn out when `COc1ccc(C(=O)Nc2ccc(Br)cc2C(=O)N/N=C/c2cccc(O)c2)cc1OC` [Compound 63, N-[4-Bromo-2-(3-hydroxy-benzylidene-hydrazinocarbonyl)-phenyl]-3,4-dimethoxy-benzamide] was run?
Answer: The IC50 was 5.97 µM.

Question: With `COc1ccc(C(=O)Nc2ccc(Br)cc2C(=O)N/N=C/c2ccc(O)cc2)cc1OC` [Compound 64, N-[4-Bromo-2-(4-hydroxy-benzylidene-hydrazinocarbonyl)-phenyl]-3,4-dimethoxy-benzamide] as the compound, how does the IC50 read?
Answer: The IC50 was 3.77 µM.

Question: `COc1ccc(C(=O)Nc2ccc(Cl)cc2C(=O)N/N=C/c2cccc(F)c2)cc1OC` [Compound 65, N-[4-Chloro-2-(3-fluoro-benzylidene-hydrazinocarbonyl)-phenyl]-3,4-dimethoxy-benzamide] was tested. Which IC50 did it give?
Answer: Its IC50 is 1.29 µM.

Question: For `COc1ccc(C(=O)Nc2ccc(Cl)cc2C(=O)N/N=C/c2ccc(F)cc2)cc1OC` [Compound 66, N-[4-Chloro-2-(4-fluoro-benzylidene-hydrazinocarbonyl)-phenyl]-3,4-dimethoxy-benzamide], which IC50 is on record?
Answer: The IC50 was 0.89 µM.
